Measured values published in patent US20210179680A1, “POLYPEPTIDE, DERIVATIVES THEREOF, AND APPLICATION THEREOF IN PREPARATION OF DRUGS HAVING RESISTANCE TO PULMONARY FIBROSIS” (priority 2016, published 2021).
Bridge positions count the residues as written; N and C are the ends. Square brackets hold non-standard residues; d marks the D form. Peptide text beside a SMILES is read from it. S5 = C=CCCC[C@](C)(N)C(=O)O

Tests used:
TRB3 protein = molecular target: T1, TRB3 protein (Homo sapiens, UniProt Q96RU7); assay: Surface plasmon resonance (Biacore T200) binding of polypeptides to TRB3 protein; conditions: SPR, FIG. 4-1, 4-2 and Table 1
T1 construct: purchased RD
T1 sequence (Q96RU7 1-358): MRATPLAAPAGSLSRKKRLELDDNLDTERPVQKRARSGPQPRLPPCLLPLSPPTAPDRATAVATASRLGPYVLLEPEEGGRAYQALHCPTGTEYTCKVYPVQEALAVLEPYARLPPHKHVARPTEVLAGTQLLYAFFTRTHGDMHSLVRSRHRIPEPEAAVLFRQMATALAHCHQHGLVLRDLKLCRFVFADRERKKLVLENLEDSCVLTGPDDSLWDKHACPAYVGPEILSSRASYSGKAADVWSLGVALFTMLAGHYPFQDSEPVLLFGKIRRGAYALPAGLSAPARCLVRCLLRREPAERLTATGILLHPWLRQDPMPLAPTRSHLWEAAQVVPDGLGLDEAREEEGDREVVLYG
Experimental: The surface plasmon resonance experiment was carried out in a surface plasmon resonator Biacore T200, and the procedure was carried out in accordance with the instructions of the plasma resonator Biacore T200. Specific steps are as follows:
1. Purified TRB3 protein (purchased from RD) was coupled to a CMS chip (purchased from GE) by amidogen, and the unbound protein was eluted at a flow rate of 10 μL/min. The surface of the chip was equilibrated for 2 hours. Among them, the specific steps of amidogen coupling, elution and equilibration refer to the relevant instruction of GE's CMS chip.
2. 250 μL of the S1-S11 and MR2 polypeptide fragments prepared in Example 1 with different concentrations (800, 400, 200, 50, 12.5, 6.25, and 3.125 nM) were automatically injected, and the entire surface plasmon resonance experiment was carried out at 25° C. The buffer used was HBS-EP buffer [0.01 M HEPES, 0.15 M NaCl, 3 mM EDTA and 0.005% (w/w) surfactant TWEEN20]. Biacore T200's built-in analysis software was used to simulate the binding curves of different concentrations of peptides to TRB3.

[1] = test system: mice with bleomycin-induced pulmonary fibrosis; assay: Pulmonary function (Flexivent) in mice with pulmonary fibrosis; type: in vivo, C57BL/6 mice; conditions: 2 mg/kg i.p.
Experimental: (§1) Male C57BL/6 mice were fasted overnight, then anesthetized with 45 mg/kg sodium pentobarbital by injection intraperitoneally (i.p.), and intratracheally injected with bleomycin at a dose of 3 U/kg. The specific operation steps are as follows: cut the neck skin of the mouse with as little trauma as possible, expose the trachea with the assistance of elbow ophthalmic forceps, puncture the trachea and inject about 50 μL of bleomycin into the trachea with a microsyringe, rotate the mouse quickly and stand it upright for 5 minutes in order to make bleomycin evenly enter the left and right lobe, thereby constructing an animal model. The whole operation was performed at a surgical table at about […]. Mice in the sham operation group were intratracheally injected with an equal amount of physiological saline for injection.
(§2) Pulmonary function is a gold indicator for clinical detection of pulmonary fibrosis in patients. The decline of lung function is generally accompanied by an aggravation of fibrosis, while the improvement of lung function generally represents the recovery of lung tissue structure. Pulmonary fibrosis models were prepared according to the method described in Example 2 and administered in groups according to Table 3. On the 28th day after the construction of the animal model, the mice were anesthetized with sodium pentobarbital (45 mg/kg, i.p.). Lung function was tested by the Flexivent Small-animal respiratory mechanics and the testing methods were TLC and SnapShots (Testing method refers to Lv X, Wang X, Li K, et al. Rupatadine Protects against Pulmonary Fibrosis by Attenuating PAF-Mediated Senescence in Rodents [J]. PloS one, 2013, 8(7): e68631).
as §2, with “lung function also generally represents” for “lung function generally represents”, “to Table 9. 28 days later, the mice” for “to Table 3. On the 28th day after the construction of the animal model, the mice”, “Senescence in Rodents[J]. PloS one,” for “Senescence in Rodents [J]. PloS one,”

[2] = test system: mice with bleomycin-induced pulmonary fibrosis; assay: Lung weight index in mice with pulmonary fibrosis; type: in vivo, C57BL/6 mice; conditions: 2 mg/kg i.p., after 28 days, lung weight (mg) divided by body weight (g)
Experimental: as §1
Pulmonary fibrosis model was prepared according to the method described in Example 2, and administered in groups according to Table 3. After 28 days, the lungs of the mice were finely stripped and weighed, and a lung weight index was obtained from dividing the lung weight (mg) by the body weight (g) of the mice. […] In FIG. 7, “##” represents that P value is less than 0.01 when the lung weight index of administration group was compared with that of the sham operation group; “*” represents that P value is less than 0.05 when the lung weight index of administration group was compared with that of the bleomycin group; “**” represents that P value is less than 0.01 when the lung weight index of administration group was compared with that of bleomycin group.
Pulmonary fibrosis models were made according to the method described in Example 2 and administered in groups according to Table 9. After 28 days, the lungs of the mice were finely stripped and weighed, and the lung weight (mg) was divided by the body weight (g) of the mice to obtain a lung weight index. […] In FIG. 13, “##” represents that P value is less than 0.01 when the lung weight index of the administration groups were compared with that of the sham operation group; “*” represents that P value is less than 0.05 and “**” represents that P value is less than 0.01 when the lung weight index of the administration groups were compared with bleomycin group.

[3] = Table 3 groups, 28th day after model construction

| Compound | interaction with the TRB3 protein (in words) (TRB3 protein) | Dynamic compliance (mL/cmH2O) [1, 3] [mL/cmH2O] | Dynamic elasticity (cmH2O./mL) [1, 3] [cmH2O./mL] | Dynamic resistance (cmH2O · s/Ml) [1, 3] [cmH2O · s/Ml] | Inspiratory capacity [1, 3] [mL] | pulmonary function of mice with pulmonary fibrosis (in words) ([1]; Table 3 groups, FIG. 11) | Lung weight index ([2]; Table 3 groups) | Dynamic compliance (mL/cmH2O) ([1]; Table 9 groups, 28 days later) | Dynamic elasticity (cmH2O./mL) ([1]; Table 9 groups, 28 days later) | Dynamic resistance (cmH2O · s/Ml) ([1]; Table 9 groups, 28 days later) | Inspiratory capacity ([1]; Table 9 groups, 28 days later) [mL] | pulmonary function of mice with pulmonary fibrosis (in words) ([1]; Table 9 groups, FIG. 17) | Lung weight index ([2]; Table 9 groups) |
| --- | --- | --- | --- | --- | --- | --- | --- | --- | --- | --- | --- | --- | --- |
| CSCC[C@H](NC(=O)[C@H](CC(C)C)NC(=O)[C@@H](N)Cc1c[nH]cn1)C(=O)N[C@@H](C)C(=O)N[C@@H](CS)C(=O)N[C@@H](Cc1ccccc1)C(=O)N[C@H](C(=O)N[C@@H](CS)C(=O)N[C@@H](C)C(=O)N[C@@H](CCCCN)C(=O)N[C@@H](CCCCN)C(=O)N[C@@H](CC(C)C)C(=O)N[C@@H](CCCCN)C(=O)N[C@@H](CCCCN)C(=O)N[C@@H](CCCNC(=N)N)C(=O)O)[C@@H](C)O [MR2] (H-HLMACFTCAKKLKKR-OH; N-terminus and C-terminus assumed) | interacted with the TRB3 protein | 0.22 | 68.83 | 1.775 | 0.456 | improved | 11.4625 | – | – | – | – | – | – |
| CSCC[C@@H]1NC(=O)[C@H](CC(C)C)NC(=O)[C@@](C)(N)CCCC=CCCC[C@@](C)(C(=O)N[C@@H](Cc2ccccc2)C(=O)N[C@H](C(=O)N[C@@H](CS)C(=O)N[C@@H](C)C(=O)N[C@@H](CCCCN)C(=O)N[C@@H](CCCCN)C(=O)N[C@@H](CC(C)C)C(=O)N[C@@H](CCCCN)C(=O)N[C@@H](CCCCN)C(=O)N[C@@H](CCCNC(=N)N)C(=O)O)[C@@H](C)O)NC(=O)[C@H](C)NC1=O [S1, S5-Leu-Met-Ala-S5-Phe-Thr-Cys-Ala-Lys-Lys-Leu-Lys-Lys-Arg] (H-[S5]LMA[S5]FTCAKKLKKR-OH; staple 1-5; N-terminus and C-terminus assumed) | interacted with the TRB3 protein | 0.2883 | 52.17 | 1.15 | 0.71 | improved | 8.675 | – | – | – | – | – | – |
| CSCC[C@@H]1NC(=O)[C@@](C)(NC(=O)[C@@H](N)Cc2c[nH]cn2)CCCC=CCCC[C@@](C)(C(=O)N[C@H](C(=O)N[C@@H](CS)C(=O)N[C@@H](C)C(=O)N[C@@H](CCCCN)C(=O)N[C@@H](CCCCN)C(=O)N[C@@H](CC(C)C)C(=O)N[C@@H](CCCCN)C(=O)N[C@@H](CCCCN)C(=O)N[C@@H](CCCNC(=N)N)C(=O)O)[C@@H](C)O)NC(=O)[C@H](CS)NC(=O)[C@H](C)NC1=O [S2, His-S5-Met-Ala-Cys-S5-Thr-Cys-Ala-Lys-Lys-Leu-Lys-Lys-Arg] (H-H[S5]MAC[S5]TCAKKLKKR-OH; staple 2-6; N-terminus and C-terminus assumed) | interacted with the TRB3 protein | 0.2683 | 55.33 | 1.25 | 0.688 | improved | 9.35 | – | – | – | – | – | – |
| CC(C)C[C@H](NC(=O)[C@H](CCCCN)NC(=O)[C@H](CCCCN)NC(=O)[C@H](C)NC(=O)[C@H](CS)NC(=O)[C@]1(C)CCCC=CCCC[C@](C)(NC(=O)[C@H](CC(C)C)NC(=O)[C@@H](N)Cc2c[nH]cn2)C(=O)N[C@@H](C)C(=O)N[C@@H](CS)C(=O)N[C@@H](Cc2ccccc2)C(=O)N1)C(=O)N[C@@H](CCCCN)C(=O)N[C@@H](CCCCN)C(=O)N[C@@H](CCCNC(=N)N)C(=O)O [S3, His-Leu-S5-Ala-Cys-Phe-S5-Cys-Ala-Lys-Lys-Leu-Lys-Lys-Arg] (H-HL[S5]ACF[S5]CAKKLKKR-OH; staple 3-7; N-terminus and C-terminus assumed) | interacted with the TRB3 protein | 0.255 | 47 | 1.143 | 0.646 | improved | 8.8 | – | – | – | – | – | – |
| S19: chimeric polypeptide Pep2-MR2, amino acid sequence SEQ ID NO: 19 (HLYVSPWGGHLMACFTCAKKLKKR; chimeric polypeptide Pep2-MR2 S19) | – | – | – | – | – | – | – | 0.33 | 38.67 | 1.143 | 0.692 | improved | 8.675 |
| S20: chimeric polypeptide TAT-MR2, amino acid sequence SEQ ID NO: 20 (YGRKKRRQRRRGGHLMACFTCAKKLKKR; chimeric polypeptide TAT-MR2 S20) | – | – | – | – | – | – | – | 0.264 | 52.17 | 1.588 | 0.422 | improved | 10.0625 |
| S21: chimeric polypeptide Antp-MR2, amino acid sequence SEQ ID NO: 21 (RQIKIWFQNRRMKWKKGGHLMACFTCAKKLKKR; chimeric polypeptide Antp-MR2 S21) | – | – | – | – | – | – | – | 0.264 | 55.33 | 1.355 | 0.616 | improved | 11.2125 |
